Bounds are passed on as bounds.

Assay [1] has as its target KIT kinase (Homo sapiens (Human), UniProt P10721). Kind of assay: Competition binding assay (Kd), KIT. The procedure: In certain embodiments, competition binding assays were performed as described in Fabian et al., Nature Biotechnology 2005, 23, 329-336.
Competition binding assays used herein were developed, validated and performed as described in Fabian et al., Nature Biotechnology 2005, 23, 329-336. Kinases were produced as fusions to T7 phage (See, Fabian et al. or WO04/015142) or alternatively, the kinases were expressed in HEK-293 cells and subsequently tagged with DNA for PCR detection (See, WO08/005,310). […] The liganded beads were blocked with excess biotin and washed with blocking buffer (SeaBlock (Pierce), 1% BSA, 0.05% Tween 20, 1 mM DTT) to remove unbound ligand and to reduce non-specific binding. […] Test compounds were prepared as 100× stocks in DMSO and diluted into the aqueous environment. Kds were determined using an eleven point threefold serial dilutions. DMSO or control compounds were was added to control assays lacking a test compound. […] The kinase concentration in the eluates was measured by quantitative PCR. […]

The target in assay [2] is FLT3 kinase (Homo sapiens (Human), UniProt P36888). Kind of assay: Competition binding assay (Kd), FLT3.
Chain of FLT3 kinase (P36888 27-993): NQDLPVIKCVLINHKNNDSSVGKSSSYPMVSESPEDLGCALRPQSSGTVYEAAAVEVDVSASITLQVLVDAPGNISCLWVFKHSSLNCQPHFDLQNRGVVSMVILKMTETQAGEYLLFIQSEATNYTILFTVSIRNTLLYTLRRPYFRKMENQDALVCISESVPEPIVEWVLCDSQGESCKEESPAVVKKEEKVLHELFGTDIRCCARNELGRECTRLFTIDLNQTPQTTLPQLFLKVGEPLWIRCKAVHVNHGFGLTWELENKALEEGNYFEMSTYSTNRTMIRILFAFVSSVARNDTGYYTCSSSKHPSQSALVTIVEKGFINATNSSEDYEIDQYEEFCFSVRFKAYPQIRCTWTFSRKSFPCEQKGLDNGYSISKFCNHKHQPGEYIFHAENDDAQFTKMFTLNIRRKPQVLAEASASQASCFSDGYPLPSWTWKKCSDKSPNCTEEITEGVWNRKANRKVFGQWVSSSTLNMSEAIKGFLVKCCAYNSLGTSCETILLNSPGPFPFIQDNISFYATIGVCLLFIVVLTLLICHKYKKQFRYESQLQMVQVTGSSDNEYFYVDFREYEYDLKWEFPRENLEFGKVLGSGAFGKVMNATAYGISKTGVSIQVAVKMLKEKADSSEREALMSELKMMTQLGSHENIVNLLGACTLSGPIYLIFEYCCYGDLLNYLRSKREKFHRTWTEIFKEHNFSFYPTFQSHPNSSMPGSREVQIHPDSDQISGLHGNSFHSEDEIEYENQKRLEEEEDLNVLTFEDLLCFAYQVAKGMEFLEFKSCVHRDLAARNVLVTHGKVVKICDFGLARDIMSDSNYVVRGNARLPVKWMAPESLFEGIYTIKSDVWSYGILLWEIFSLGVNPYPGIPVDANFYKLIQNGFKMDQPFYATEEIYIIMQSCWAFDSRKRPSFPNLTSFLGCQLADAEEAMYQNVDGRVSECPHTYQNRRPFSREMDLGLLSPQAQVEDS

Chain of KIT kinase (P10721 26-976): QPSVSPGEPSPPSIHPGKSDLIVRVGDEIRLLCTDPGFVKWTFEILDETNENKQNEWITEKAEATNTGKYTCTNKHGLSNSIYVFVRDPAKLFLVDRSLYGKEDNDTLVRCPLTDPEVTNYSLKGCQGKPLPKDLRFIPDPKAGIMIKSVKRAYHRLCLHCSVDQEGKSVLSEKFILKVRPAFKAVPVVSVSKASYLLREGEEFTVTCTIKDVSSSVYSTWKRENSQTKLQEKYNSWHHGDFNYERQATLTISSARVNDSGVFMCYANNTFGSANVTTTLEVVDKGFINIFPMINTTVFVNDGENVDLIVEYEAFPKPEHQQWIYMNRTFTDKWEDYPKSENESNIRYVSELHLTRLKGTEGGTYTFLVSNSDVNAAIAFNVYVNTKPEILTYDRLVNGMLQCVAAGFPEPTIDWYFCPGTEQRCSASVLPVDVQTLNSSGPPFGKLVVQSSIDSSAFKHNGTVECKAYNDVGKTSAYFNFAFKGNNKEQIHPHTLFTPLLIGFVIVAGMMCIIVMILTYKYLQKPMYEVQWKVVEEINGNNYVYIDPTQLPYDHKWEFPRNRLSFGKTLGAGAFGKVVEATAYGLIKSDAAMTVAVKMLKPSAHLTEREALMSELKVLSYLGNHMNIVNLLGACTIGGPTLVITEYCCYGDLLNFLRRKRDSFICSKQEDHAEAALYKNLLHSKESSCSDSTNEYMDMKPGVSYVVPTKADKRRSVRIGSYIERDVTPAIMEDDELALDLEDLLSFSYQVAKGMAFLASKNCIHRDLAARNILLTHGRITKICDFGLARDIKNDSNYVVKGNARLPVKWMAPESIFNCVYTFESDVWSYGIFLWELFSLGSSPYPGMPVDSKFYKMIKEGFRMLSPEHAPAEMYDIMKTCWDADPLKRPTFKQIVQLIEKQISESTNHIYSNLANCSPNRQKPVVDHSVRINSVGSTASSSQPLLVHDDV

As for `COc1cc2ncc(-c3ccc(CC(=O)Nc4cc(C(C)(C)C(F)(F)F)on4)c(F)c3)cc2cc1OCCO` [Example 178, 2-[2-fluoro-4-[6-(2-hydroxyethoxy)-7-methoxy-3-quinolyl]phenyl]-N-[5-(2,2,2-trifluoro-1,1-dimethyl-ethyl)isoxazol-3-yl]acetamide], the Kd in assay [1] (competition binding assay) and in assay [2] (competition binding assay) was under 5 nM throughout.
With `COc1cc2ncc(-c3ccc(CC(=O)Nc4cc(C5(C(F)(F)F)CC5)on4)c(F)c3)cc2cc1OCCO` [Example 179, 2-[2-fluoro-4-[6-(2-hydroxyethoxy)-7-methoxy-3-quinolyl]phenyl]-N-[5-[1-(trifluoromethyl)cyclo-propyl]isoxazol-3-yl]acetamide], the Kd in assay [1] (competition binding assay) and in assay [2] (competition binding assay) was under 5 nM throughout.
Take `COc1cc2ncc(-c3ccc(CC(=O)Nc4cc(C5(C(F)(F)F)CC5)n[nH]4)c(F)c3)nc2cc1OC` [Example 180, 2-[4-(6,7-dimethoxyquinoxalin-2-yl)-2-fluoro-phenyl]-N-[3-[1-(trifluoromethyl)cyclo-propyl]-1H-pyrazol-5-yl]acetamide]: the Kd in assay [1] (competition binding assay) and in assay [2] (competition binding assay) was under 5 nM throughout.
As for `COc1cc2ncc(-c3ccc(CC(=O)Nc4cc(C(C)(C)C(F)(F)F)nn4C)c(F)c3)nc2cc1OC` [Example 181, 2-[4-(6,7-dimethoxyquinoxalin-2-yl)-2-fluoro-phenyl]-N-[2-methyl-5-(2,2,2-trifluoro-1,1-dimethyl-ethyl)pyrazol-3-yl]acetamide], the Kd in assay [1] (competition binding assay) and in assay [2] (competition binding assay) was under 5 nM in each case.
For `COc1cc2ncc(-c3ccc(CC(=O)Nc4cc(C(C)(C)C(F)(F)F)n[nH]4)c(F)c3)nc2cc1OC` [Example 182, 2-[4-(6,7-dimethoxyquinoxalin-2-yl)-2-fluoro-phenyl]-N-[3-(2,2,2-trifluoro-1,1-dimethyl-ethyl)-1H-pyrazol-5-yl]acetamide], the Kd in assay [1] (competition binding assay) and in assay [2] (competition binding assay) was under 5 nM in each case.
With `COc1cc2nc(-c3ccc(CC(=O)Nc4cc(C5(C(F)(F)F)CC5)on4)c(F)c3)cnc2cc1OCC#N` [Example 183, 2-[4-[6-(cyanomethoxy)-7-methoxy-quinoxalin-2-yl]-2-fluoro-phenyl]-N-[5-[1-(trifluoromethyl)cyclo-propyl]isoxazol-3-yl]acetamide], the Kd in assay [1] (competition binding assay) and in assay [2] (competition binding assay) was under 5 nM throughout.
As to `COc1cc2ncc(-c3ccc(CC(=O)Nc4cc(C(C)(C)C(F)(F)F)on4)c(F)c3)nc2cc1O` [Example 184, 2-[2-fluoro-4-(7-hydroxy-6-methoxy-quinoxalin-2-yl)phenyl]-N-[5-(2,2,2-trifluoro-1,1-dimethyl-ethyl)isoxazol-3-yl]acetamide], the Kd in assay [1] (competition binding assay) and in assay [2] (competition binding assay) was under 5 nM throughout.
For `COc1cc2nc(-c3ccc(CC(=O)Nc4cc(C5(C(F)(F)F)CC5)on4)c(F)c3)cnc2cc1OCCn1cncn1` [Example 185, 2-[2-fluoro-4-[7-methoxy-6-[2-(1,2,4-triazol-1-yl)ethoxy]quinoxalin-2-yl]phenyl]-N-[5-[1-(trifluoro-methyl)cyclopropyl]isoxazol-3-yl]acetamide], the Kd in assay [1] (competition binding) and in assay [2] (competition binding) was under 5 nM throughout.
For the compound `COc1cc2nc(-c3ccc(CC(=O)Nc4cc(C5(C(F)(F)F)CC5)on4)c(F)c3)cnc2cc1OCC(=O)N(C)C` [Example 186, 2-[4-[6-[2-(dimethylamino)-2-oxo-ethoxy]-7-methoxy-quinoxalin-2-yl]-2-fluoro-phenyl]-N-[5-[1-(trifluoro-methyl)cyclopropyl]isoxazol-3-yl]acetamide], the equilibrium dissociation constant (Kd) in assay [1] (competition binding) and in assay [2] (competition binding) was under 5 nM throughout.
On to `COc1cc2ncc(-c3ccc(CC(=O)Nc4cc(C(C)(C)C(F)(F)F)on4)c(F)c3)nc2cc1OCCN1CCOCC1` [Example 187, 2-[2-fluoro-4-[6-methoxy-7-(2-morpholino-ethoxy)quinoxalin-2-yl]phenyl]-N-[5-(2,2,2-trifluoro-1,1-dimethyl-ethyl)isoxazol-3-yl]acetamide], for which the Kd in assay [1] (competition binding) and in assay [2] (competition binding) was under 5 nM in each case.
On to `COCCOc1cc2cc(-c3ccc(CC(=O)Nc4cc(C5(C(F)(F)F)CC5)on4)c(F)c3)cnc2cc1OC` [Example 188, 2-[2-fluoro-4-[7-methoxy-6-(2-methoxyethoxy)-3-quinolyl]phenyl]-N-[5-[1-(trifluoromethyl)cyclo-propyl]isoxazol-3-yl]acetamide], for which the Kd in assay [1] (competition binding) and in assay [2] (competition binding) was under 5 nM in each case.
With `COc1cc2ncc(-c3ccc(CC(=O)Nc4cc(C(C)(C)C(F)(F)F)on4)c(F)c3)cc2cc1OCCN1CCOCC1` [Example 189, 2-[2-fluoro-4-[7-methoxy-6-(2-morpholinoethoxy)-3-quinolyl]phenyl]-N-[5-(2,2,2-trifluoro-1,1-dimethyl-ethyl)isoxazol-3-yl]acetamide], the Kd in assay [1] (competition binding) and in assay [2] (competition binding) was under 5 nM each time.
For the compound `COc1cc2ncc(-c3ccc(CC(=O)Nc4cc(C5(C(F)(F)F)CC5)on4)c(F)c3)cc2cc1OCCN1CCOCC1` [Example 190, 2-[2-fluoro-4-[7-methoxy-6-(2-morpholinoethoxy)-3-quinolyl]phenyl]-N-[5-[1-(trifluoromethyl)cyclo-propyl]isoxazol-3-yl]acetamide], the Kd in assay [1] (competition binding) and in assay [2] (competition binding) was under 5 nM throughout.
For the compound `COc1cc2ncc(-c3ccc(CC(=O)Nc4cc(C(C)(C)C(F)(F)F)on4)c(F)c3)nc2cc1OCCN1CC[C@H](O)C1` [Example 191, 2-[2-fluoro-4-[7-[2-[(3S)-3-hydroxypyrrolidin-1-yl]ethoxy]-6-methoxy-quinoxalin-2-yl]phenyl]-N-[5-(2,2,2-trifluoro-1,1-dimethyl-ethyl)isoxazol-3-yl]acetamide], the Kd in assay [1] (competition binding) and in assay [2] (competition binding) was under 5 nM throughout.
In the case of `COc1cc2ncc(-c3ccc(CC(=O)Nc4cc(C5(C(F)(F)F)CC5)on4)c(F)c3)cc2cc1OCCN` [Example 192, 2-[4-[6-(2-aminoethoxy)-7-methoxy-3-quinolyl]-2-fluoro-phenyl]-N-[5-[1-(trifluoromethyl)cyclo-propyl]isoxazol-3-yl]acetamide], the Kd in assay [1] (competition binding) and in assay [2] (competition binding) was under 5 nM throughout.
For `COc1cc2ncc(-c3ccc(CC(=O)Nc4cc(C5(C(F)(F)F)CC5)on4)c(F)c3)cc2cc1OCCNC(C)=O` [Example 193, 2-[4-[6-(2-acetamidoethoxy)-7-methoxy-3-quinolyl]-2-fluoro-phenyl]-N-[5-[1-(trifluoromethyl)cyclo-propyl]isoxazol-3-yl]acetamide], the Kd in assay [1] (competition binding) and in assay [2] (competition binding) was under 5 nM each time.
Turning to `COc1cc2ncc(-c3ccc(CC(=O)Nc4cc5n(n4)CCC5(C)C)c(F)c3)nc2cc1OC` [Example 194, 2-[4-(6,7-dimethoxyquinoxalin-2-yl)-2-fluoro-phenyl]-N-(4,4-dimethyl-5,6-dihydropyrrolo[1,2-b]pyrazol-2-yl)acetamide], the equilibrium dissociation constant (Kd) in assay [1] (competition binding) and in assay [2] (competition binding) was under 5 nM in each case.
As for `COc1cc2nc(-c3ccc(CC(=O)Nc4cc(C5(C(F)(F)F)CC5)on4)c(F)c3)cnc2cc1OCCCO` [Example 195, 2-[2-fluoro-4-[6-(3-hydroxypropoxy)-7-methoxy-quinoxalin-2-yl]phenyl]-N-[5-[1-(trifluoromethyl)cyclo-propyl]isoxazol-3-yl]acetamide], the equilibrium dissociation constant (Kd) in assay [1] (competition binding) and in assay [2] (competition binding) was under 5 nM each time.
`CNCCOc1cc2nc(-c3ccc(CC(=O)Nc4cc(C(C)(C)C(F)(F)F)on4)c(F)c3)cnc2cc1OC` [Example 196, 2-[2-fluoro-4-[6-methoxy-7-[2-(methyl-amino)ethoxy]quinoxalin-2-yl]phenyl]-N-[5-(2,2,2-trifluoro-1,1-dimethyl-ethyl)isoxazol-3-yl]acetamide]: the dissociation constant Kd in assay [1] (competition binding) and in assay [2] (competition binding) was under 5 nM in each case.
As to `COc1cc2cc(-c3ccc(CC(=O)Nc4cc(C(C)(C)C(F)(F)F)on4)c(F)c3)cnc2cc1OCCN1CCOCC1` [Example 197, 2-[2-fluoro-4-[6-methoxy-7-(2-morpholinoethoxy)-3-quinolyl]phenyl]-N-[5-(2,2,2-trifluoro-1,1-dimethyl-ethyl)isoxazol-3-yl]acetamide], the Kd in assay [1] (competition binding) and in assay [2] (competition binding) was under 5 nM in each case.
As to `COc1cc2ncc(-c3ccc(CC(=O)Nc4cc(C(C)(C)C(F)(F)F)on4)c(F)c3)nc2cc1OCCN(C)C(C)=O` [Example 198, 2-[4-[7-[2-[acetyl(methyl)amino]ethoxy]-6-methoxy-quinoxalin-2-yl]-2-fluoro-phenyl]-N-[5-(2,2,2-trifluoro-1,1-dimethyl-ethyl)isoxazol-3-yl]acetamide], the Kd in assay [1] (competition binding) and in assay [2] (competition binding) was under 5 nM throughout.
For `COc1cc2cc(-c3ccc(CC(=O)Nc4cc(C(C)(C)C(F)(F)F)on4)c(F)c3)cnc2cc1OCCN1CC[C@@H](O)C1` [Example 199, 2-[2-fluoro-4-[7-[2-[(3R)-3-hydroxypyrrolidin-1-yl]ethoxy]-6-methoxy-3-quinolyl]phenyl]-N-[5-(2,2,2-trifluoro-1,1-dimethyl-ethyl)isoxazol-3-yl]acetamide], the Kd in assay [1] (competition binding) and in assay [2] (competition binding) was under 5 nM throughout.
Consider `COc1cc2cc(-c3ccc(CC(=O)Nc4cc(C(C)(C)C(F)(F)F)on4)c(F)c3)cnc2cc1OCCN(C)CCO` [Example 200, 2-[2-fluoro-4-[7-[2-[2-hydroxy-ethyl(methyl)amino]ethoxy]-6-methoxy-3-quinolyl]phenyl]-N-[5-(2,2,2-trifluoro-1,1-dimethyl-ethyl)isoxazol-3-yl]acetamide], for which the Kd in assay [1] (competition binding) and in assay [2] (competition binding) was under 5 nM each time.

The values above are taken from patent publication US9725465B2, “Biaryl acetamide compounds and methods of use thereof” (Ambit Biosciences Corporation, priority 2013, dated 2017).
